Experiment [1] can be described thus: DPPH free radical scavenging assay. The settings on record: compounds 100 μM; 517 nm (Table 2). On the procedure: The antioxidant property of different tryptamine derivatives were assessed and compared with the known antioxidants for potency. A range of different synthesized compounds and known anti oxidants, quercetin, ascorbic acid and gallic acid were analyzed by the FRAP assay. The FRAP assay is based on the measurement of the ability of the substance to reduce Fe^3+ to Fe^2+, greater the reducing ability greater the anti oxidant property. Antioxidants reduce Fe^3+-TPTZ in to blue colored Fe^2+-TPTZ complex, which results in an increase in the absorbance at 595 nm giving a FRAP value. […] Absorbance changes at different time intervals (FIG. 6) as well as at different concentrations (FIG. 7) at time 6 min in the presence of different compounds at 595 nm were measured. FRAP values at 6 min and 65 min were calculated from different tryptamine derivatives and some known antioxidant (Table 1). […] DPPH assay based on the DPPH free radicals scavenging power of the antioxidant molecules. Higher the scavenging power higher will be the antioxidant property. […] This assay was performed in presence of some known antioxidants such as ascorbic acid, quercetin and gallic acid.
2,2-Diphenyl-1-Picrylhydrazyl (DPPH) is a stable free radical that can accept hydrogen radical or an electron and become a stable diamagnetic molecule. The antioxidants can scavenge the DPPH by donating hydrogen as visualized by discoloration of the DPPH radical from purple to yellow (Pal, C; et al. Free Radic Biol Med, 49(2), 258-267; 2010, Ben Farhat, M.; et al. J. Agric. Food Chem. 57:10349-10356; 2009, Han, J; et al. Wei Sheng Yan Jiu 38:596-598; 2009). The assay system contained 1 mL of compounds under investigation dissolved (in methanol, some compound dissolved in water) at different concentrations in the range 10-100 μM solution and 4 ml of DPPH (0.15 mM) in methanol (80% in water v/v) and mixed well. It was allowed to stand for 30 min at 27° C. away from light. Ascorbic acid at the same concentration was taken as positive control. The absorbance of the solution was measured spectrophotometrically at 517 nm and from the decrease of absorption; the antioxidant activity of different tryptamine derivatives were determined.
In general terms: Loss of DPPH colour is used to gauge radical scavenging.

Experiment [2] is described as follows: Ferric reducing antioxidant power (FRAP) assay. Particulars: compound at 10 μM relative to ferrous sulfate; for FRAP Value6 min (μM) M ± SD: 6 min; for FRAP Value65 min (μM) M ± SD: 65 min. On the procedure: The antioxidant property of different tryptamine derivatives were assessed and compared with the known antioxidants for potency. […] The FRAP assay is based on the measurement of the ability of the substance to reduce Fe^3+ to Fe^2+, greater the reducing ability greater the anti oxidant property. Antioxidants reduce Fe^3+-TPTZ in to blue colored Fe^2+-TPTZ complex, which results in an increase in the absorbance at 595 nm giving a FRAP value. […] Absorbance changes at different time intervals (FIG. 6) as well as at different concentrations (FIG. 7) at time 6 min in the presence of different compounds at 595 nm were measured. FRAP values at 6 min and 65 min were calculated from different tryptamine derivatives and some known antioxidant (Table 1). […] DPPH assay based on the DPPH free radicals scavenging power of the antioxidant molecules. Higher the scavenging power higher will be the antioxidant property.
The assay was performed in a 96-well microplate. FRAP reagent was prepared by mixing of 10 ml acetate buffer (200 mM, pH-3.6), 1 ml of 2,4,6-tris(2-pyridyl)-s-triazine (TPTZ) solution (10 mM in 40 mM HCl) and 1 ml of ferric chloride solution (20 mM) in distilled water. For 1 h the mixture was kept in a water bath at 37° C. In 96-well microplates, 25 μL of the compounds under investigation dissolved (in methanol, some compound dissolved in water) at different concentrations in the range 1-25 μM was placed in triplicate and freshly prepared FRAP solution (175 μL) was added to this sample. A micro plate reader monitored the absorbance at 595 nm at different time intervals for up to 150 min. The absorbance of a mixture 175 μL TRAP sol and 25 μL methanol or water was taken which was subtracted from the absorbance of the samples at each time interval to calculate the absorbance change (ΔA). The FRAP value at time interval t (FRAP valuet) was calculated according to the formula: FRAP valuet(M)=(ΔatFl/ΔatFe^2+)×10^−5 Where ΔatFl is the absorbance change after the time interval t (6 and 65 min) relative to the tested flavonoid at the concentration of 10 μM and ΔatFe^2+ is the absorbance change at the same time interval relative to ferrous sulfate at the same concentration (Pal, C; et al. Free Radic Biol Med, 49(2), 258-267, 2010, Firuzi, O; et al. Biochim. Biophys. Acta 1721:174-184; 2005).

The results in this text go back to US8901317B2, “Tryptamine derivatives, their preparation and their use in gastropathy” (Council of Scientific & Industrial Research, priority 2010, dated 2014).

On to `O=C(/C=C/c1ccc(O)cc1)NCCc1c[nH]c2ccccc12` [Compound 2e, (E)-N-(2-(1H-indol-3-yl)ethyl)-3-(4-hydroxyphenyl)acrylamide], for which, in experiment [1], the “Absorbance change (ΔA) at 30 min” value was 0.11 ± 0.02. In experiment [2], the “FRAP Value6 min (μM) M ± SD” value was 2.45 ± 0.19 µM and the “FRAP Value65 min (μM) M ± SD” value was 5.60 ± 1.02 µM.
On the same counts, the results for `O=C(Cc1c[nH]c2ccccc12)NCCc1c[nH]c2ccc(O)cc12` [Compound 2c, N-(2-(5-hydroxy-1H-indol-3-yl)ethyl)-2-(1H-indol-3-yl)acetamide] are 0.14 ± 0.04, 2.48 ± 0.10 µM and 3.57 ± 0.41 µM.
Turning to `O=C1O[C@H]([C@@H](O)CO)C(O)=C1O` [Ascorbic acid, reference compound], in experiment [2], the “FRAP Value6 min (μM) M ± SD” value was determined as 15.46 ± 0.07 µM and the “FRAP Value65 min (μM) M ± SD” value came out at 15.89 ± 2.24 µM.
The matching figures for `O=c1c(O)c(-c2ccc(O)c(O)c2)oc2cc(O)cc(O)c12` [Quercetin, reference compound]: 28.11 ± 1.00 µM and 48.55 ± 4.85 µM.
Take `O=C(Cc1c[nH]c2ccccc12)NCCc1c[nH]c2ccccc12` [Compound 2f, N-(2-(1H-indol-3-yl)ethyl)-2-(1H-indol-3-yl)acetamide]: in experiment [1], the “Absorbance change (ΔA) at 30 min” value stood at 0.13 ± 0.03. For the same compound, in experiment [2], the “FRAP Value6 min (μM) M ± SD” value stood at 2.44 ± 0.24 µM and the “FRAP Value65 min (μM) M ± SD” value stood at 3.33 ± 0.49 µM.
Turning to `COc1ccc2[nH]cc(CCNC(=O)/C=C/c3ccc(O)cc3)c2c1` [Compound 2h, (E)-3-(4-hydroxyphenyl)-N-(2-(5-methoxy-1H-indol-3-yl)ethyl)acrylamide], in experiment [1], the “Absorbance change (ΔA) at 30 min” value came out at 0.11 ± 0.03. Moreover, in experiment [2], the “FRAP Value6 min (μM) M ± SD” value amounted to 1.87 ± 0.13 µM and the “FRAP Value65 min (μM) M ± SD” value turned out to be 2.93 ± 1.43 µM.
For the compound `COc1ccc2[nH]cc(CCNC(=O)Cc3c[nH]c4ccccc34)c2c1` [Compound 2i, 2-(1H-indol-3-yl)-N-(2-(5-methoxy-1H-indol-3-yl)ethyl) acetamide], the “Absorbance change (ΔA) at 30 min” value in experiment [1] is listed as 0.12 ± 0.02. In experiment [2], the “FRAP Value6 min (μM) M ± SD” value was found to be 1.94 ± 0.04 µM and the “FRAP Value65 min (μM) M ± SD” value was found to be 2.5 ± 0.34 µM.
